According to patent publication US20070049593A1 (priority 2004, published 2007):
Structures can show the parent of a compound that is named as a salt.

What follows are compounds tested against T1, HCV polymerase (Hepatitis C virus genotype 1b, UniProt P26663) (assay: biochemical).
T1 construct: a region encoding NS5B (J Virol 1991 March, 65(3), 1105-13, 544 amino acids after deletion of 47 amino acids on the C-terminal); 6xHis (C); made in house; host or cells: Escherichia coli
T1 sequence (P26663 2420-2963): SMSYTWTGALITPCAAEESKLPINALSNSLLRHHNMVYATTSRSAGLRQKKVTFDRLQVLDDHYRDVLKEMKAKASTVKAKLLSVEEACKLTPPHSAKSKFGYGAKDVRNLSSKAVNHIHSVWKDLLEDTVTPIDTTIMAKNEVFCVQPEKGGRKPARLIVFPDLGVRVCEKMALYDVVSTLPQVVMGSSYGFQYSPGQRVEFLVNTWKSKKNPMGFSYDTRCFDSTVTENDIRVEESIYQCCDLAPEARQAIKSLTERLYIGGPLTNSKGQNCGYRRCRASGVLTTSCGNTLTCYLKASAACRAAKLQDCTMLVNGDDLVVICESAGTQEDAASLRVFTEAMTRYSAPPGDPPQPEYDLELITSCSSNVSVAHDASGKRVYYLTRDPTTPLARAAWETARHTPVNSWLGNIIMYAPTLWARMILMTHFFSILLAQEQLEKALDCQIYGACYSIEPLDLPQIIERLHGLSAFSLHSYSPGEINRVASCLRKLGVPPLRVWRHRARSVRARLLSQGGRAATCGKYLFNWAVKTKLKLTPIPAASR
Design: species or system HCV BK strain
Procedure, shortened: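 His-tagged NS5B (BK strain, 47-aa C-terminal deletion, E. coli-expressed) at 0.5 μg/ml copied 5 μg/ml run-off RNA bearing the HCV 3′ UTR with 2 μM UTP plus [3H]UTP, 50 μM ATP/GTP, in pH 7.5 Tris with 5 mM MgCl2, 25 °C, 90 min. TCA-precipitated RNA was counted and IC50 calculated.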
For `CCCN(CCN1CCCCC1)c1cccc2c1OCCn1c-2c(C2CCCCC2)c2ccc(C(=O)NC(C)(C)C(=O)O)cc21` [Example 2-276, 2-[(12-cyclohexyl-4-{N-[2-(piperidin-1-yl)ethyl]-N-propylamino}-6,7-dihydro-5-oxa-7a-azadibenzo[a,e]azulene-9-carbonyl)amino]-2-methylpropionic acid], the IC50 was < 100 nM.
With `O=C(O)c1ccc2c(C3CCCCC3)c3n(c2c1)CCOc1c-3cccc1N(CC(=O)N1CCCCC1)CC(=O)N1CCCCC1` [Example 2-277, 4-{bis[2-oxo-2-(piperidin-1-yl)ethyl]amino}-12-cyclohexyl-6,7-dihydro-5-oxa-7a-azadibenzo[a,e]azulene-9-carboxylic acid] the IC50 was < 100 nM.
With `O=C(O)c1ccc2c(C3CCCCC3)c3n(c2c1)CCOc1c-3cccc1N(CCN1CCCCC1)CCN1CCCCC1` [Example 2-278, 4-{bis[2-(piperidin-1-yl)ethyl]amino}-12-cyclohexyl-6,7-dihydro-5-oxa-7a-azadibenzo[a,e]azulene-9-carboxylic acid dihydrochloride] the IC50 was < 100 nM.
For `COC(=O)[C@H](Cc1ccc(F)cc1)NC(=O)c1ccc2c(C3CCCCC3)c3n(c2c1)CCOc1cc(OC)ccc1-3` [Example 2-279, methyl (S)-2-[(12-cyclohexyl-3-methoxy-6,7-dihydro-5-oxa-7a-azadibenzo[a,e]azulene-9-carbonyl)amino]-3-(4-fluorophenyl)propionate], the IC50 was < 100 nM.
For `COC(=O)[C@H](Cc1c[nH]cn1)NC(=O)c1ccc2c(C3CCCCC3)c3n(c2c1)CCOc1cc(OC)ccc1-3` [Example 2-280, methyl (S)-2-[(12-cyclohexyl-3-methoxy-6,7-dihydro-5-oxa-7a-azadibenzo[a,e]azulene-9-carbonyl)amino]-3-(1H-imidazol-4-yl)propionate], the IC50 was < 100 nM.
Compound `COC(=O)[C@@H]1Cc2ccc(O)cc2CN1C(=O)c1ccc2c(C3CCCCC3)c3n(c2c1)CCOc1cc(OC)ccc1-3` [Example 2-281, methyl (S)-2-(12-cyclohexyl-3-methoxy-6,7-dihydro-5-oxa-7a-azadibenzo[a,e]azulene-9-carbonyl)-7-hydroxy-1,2,3,4-tetrahydroisoquinoline-3-carboxylate] has an IC50 of 100 to 1000 nM.
With `COC(=O)c1cc2[nH]c(C(C)(C)NC(=O)c3ccc4c(C5CCCCC5)c5n(c4c3)CCOc3ccccc3-5)nc2cc1C` [Example 2-282, methyl 2-{1-[(12-cyclohexyl-6,7-dihydro-5-oxa-7a-azadibenzo[a,e]azulene-9-carbonyl)amino]-1-methylethyl}-6-methyl-3H-benzimidazole-5-carboxylate] the IC50 was < 100 nM.
For `Cc1cc2nc(C(C)(C)NC(=O)c3ccc4c(C5CCCCC5)c5n(c4c3)CCOc3ccccc3-5)[nH]c2cc1C(=O)O` [Example 2-283], the IC50 was < 100 nM.
For `COC(=O)Cn1c(C(C)(C)NC(=O)c2ccc3c(C4CCCCC4)c4n(c3c2)CCOc2ccccc2-4)nc2ccccc21` [Example 2-284, methyl (2-{1-[(12-cyclohexyl-6,7-dihydro-5-oxa-7a-azadibenzo[a,e]azulene-9-carbonyl)amino]-1-methylethyl}benzimidazol-1-yl)acetate], the IC50 was < 100 nM.
With `Cn1c(C(C)(C)NC(=O)c2ccc3c(C4CCCCC4)c4n(c3c2)CCOc2ccccc2-4)nc2ccccc21` [Example 2-285, N-[1-methyl-1-(1-methyl-1H-benzimidazol-2-yl)ethyl]-12-cyclohexyl-6,7-dihydro-5-oxa-7a-azadibenzo[a,e]azulene-9-carboxamide] the IC50 was < 100 nM.
`Cn1c(NC(=O)c2ccc3c(C4CCCCC4)c4n(c3c2)CCOc2ccccc2-4)nc2ccccc21` [Example 2-286, N-(1-methyl-1H-benzimidazol-2-yl)-12-cyclohexyl-6,7-dihydro-5-oxa-7a-azadibenzo[a,e]azulene-9-carboxamide] was tested, and the IC50 was 100 to 1000 nM.
In the case of `O=C(O)CN1CCC(CO)(NC(=O)c2ccc3c(C4CCCCC4)c4n(c3c2)CCOc2ccccc2-4)CC1` [Example 2-287, {4-[(12-cyclohexyl-6,7-dihydro-5-oxa-7a-azadibenzo[a,e]azulene-9-carbonyl)amino]-4-hydroxymethylpiperidin-1-yl}acetic acid monohydrochloride], the IC50 is reported as 100 to 1000 nM.
With `O=C(NCc1nc2ccccc2n1CCO)c1ccc2c(C3CCCCC3)c3n(c2c1)CCOc1ccccc1-3` [Example 2-288, N-[1-(2-hydroxyethyl)-1H-benzimidazol-2-ylmethyl]-12-cyclohexyl-6,7-dihydro-5-oxa-7a-azadibenzo[a,e]azulene-9-carboxamide] the IC50 was < 100 nM.
With `CC(C)(NC(=O)c1ccc2c(C3CCCCC3)c3n(c2c1)CCOc1ccccc1-3)C(=O)N1CCOCC1` [Example 2-289, N-[1,1-dimethyl-2-(morpholin-4-yl)-2-oxoethyl]-12-cyclohexyl-6,7-dihydro-5-oxa-7a-azadibenzo[a,e]azulene-9-carboxamide] the IC50 was < 100 nM.
`CN1CCN(C(=O)C(C)(C)NC(=O)c2ccc3c(C4CCCCC4)c4n(c3c2)CCOc2ccccc2-4)CC1` [Example 2-290, N-[1,1-dimethyl-2-(4-methylpiperazin-1-yl)-2-oxoethyl]-12-cyclohexyl-6,7-dihydro-5-oxa-7a-azadibenzo[a,e]azulene-9-carboxamide] gave an IC50 of 100 to 1000 nM.
For `CC(C)(NC(=O)c1ccc2c(C3CCCCC3)c3n(c2c1)CCOc1ccccc1-3)C(=O)N1CCN(c2ccccc2)CC1` [Example 2-291, N-[1,1-dimethyl-2-oxo-2-(4-phenylpiperazin-1-yl)ethyl]-12-cyclohexyl-6,7-dihydro-5-oxa-7a-azadibenzo[a,e]azulene-9-carboxamide], the IC50 was < 100 nM.
`Cc1nc(C(C)(C)NC(=O)c2ccc3c(C4CCCCC4)c4n(c3c2)CCOc2ccccc2-4)n(CCO)c1C` [Example 2-292, N-{1-[1-(2-hydroxyethyl)-4,5-dimethyl-1H-imidazol-2-yl]-1-methylethyl}-12-cyclohexyl-6,7-dihydro-5-oxa-7a-azadibenzo[a,e]azulene-9-carboxamide] was tested, and the IC50 was 100 to 1000 nM.
Work on `Cc1nc(C(C)(C)NC(=O)c2ccc3c(C4CCCCC4)c4n(c3c2)CCOc2ccccc2-4)n(CC(=O)N(C)C)c1C` [Example 2-293, N-[1-(1-dimethylcarbamoylmethyl-4,5-dimethyl-1H-imidazol-2-yl)-1-methylethyl]-12-cyclohexyl-6,7-dihydro-5-oxa-7a-azadibenzo[a,e]azulene-9-carboxamide] yielded an IC50 of 100 to 1000 nM.
In the case of `COC1CCN(C(=O)C(C)(C)NC(=O)c2ccc3c(C4CCCCC4)c4n(c3c2)CCOc2ccccc2-4)CC1` [Example 2-294, N-[2-(4-methoxypiperidin-1-yl)-1,1-dimethyl-2-oxoethyl]-12-cyclohexyl-6,7-dihydro-5-oxa-7a-azadibenzo[a,e]azulene-9-carboxamide], the IC50 is reported as < 100 nM.
For `COCCN(C)C(=O)[C@H](Cc1ccc(O)cc1)NC(=O)c1ccc2c(C3CCCCC3)c3n(c2c1)CCOc1cc(OC)ccc1-3` [Example 2-295, N-{(S)-2-(4-hydroxyphenyl)-1-[N-(2-methoxyethyl)-N-methylcarbamoyl]ethyl}-12-cyclohexyl-3-methoxy-6,7-dihydro-5-oxa-7a-azadibenzo[a,e]azulene-9-carboxamide], the IC50 was < 100 nM.
With `COCCNC(=O)[C@H](Cc1ccc(O)cc1)NC(=O)c1ccc2c(C3CCCCC3)c3n(c2c1)CCOc1cc(OC)ccc1-3` [Example 2-296, N—[(S)-2-(4-hydroxyphenyl)-1-(2-methoxyethylcarbamoyl)ethyl]-12-cyclohexyl-3-methoxy-6,7-dihydro-5-oxa-7a-azadibenzo[a,e]azulene-9-carboxamide] the IC50 was < 100 nM.
`COc1ccc2c(c1)OCCn1c-2c(C2CCCCC2)c2ccc(C(=O)N[C@@H](Cc3ccc(O)cc3)C(=O)N3CCC(OC)CC3)cc21` [Example 2-297, N—[(S)-1-(4-hydroxybenzyl)-2-(4-methoxypiperidin-1-yl)-2-oxoethyl]-12-cyclohexyl-3-methoxy-6,7-dihydro-5-oxa-7a-azadibenzo[a,e]azulene-9-carboxamide] was tested, and the IC50 was < 100 nM.
For `O=C(O)c1ccc2c(C3CCCCC3)c3n(c2c1)CCOc1c(-c2cccnc2)cccc1-3` [Example 2-298, 12-cyclohexyl-4-(pyridin-3-yl)-6,7-dihydro-5-oxa-7a-azadibenzo[a,e]azulene-9-carboxylic acid hydrochloride], the IC50 was < 100 nM.
For `O=C(O)c1ccc2c(C3CCCCC3)c3n(c2c1)CCOc1c(-c2ccncc2)cccc1-3` [Example 2-299, 12-cyclohexyl-4-(pyridin-4-yl)-6,7-dihydro-5-oxa-7a-azadibenzo[a,e]azulene-9-carboxylic acid monohydrochloride], the IC50 was < 100 nM.
`CCCN(CCN1CCCCC1)c1cccc2c1OCCn1c-2c(C2CCCCC2)c2ccc(C(N)=O)cc21` [Example 2-300, 12-cyclohexyl-4-{N-[2-(piperidin-1-yl)ethyl]-N-propylamino}-6,7-dihydro-5-oxa-7a-azadibenzo[a,e]azulene-9-carboxamide] was tested, and the IC50 was < 100 nM.
For `CCN1CCN(C(=O)CN(CC)c2cccc3c2OCCn2c-3c(C3CCCCC3)c3ccc(C(=O)O)cc32)CC1` [Example 2-301, 12-cyclohexyl-4-{N-ethyl-N-[2-(4-ethylpiperazin-1-yl)-2-oxoethyl]amino}-6,7-dihydro-5-oxa-7a-azadibenzo[a,e]azulene-9-carboxylic acid dihydrochloride], the IC50 was < 100 nM.
`O=C(O)c1ccc2c(C3CCCCC3)c3n(c2c1)CCOc1c(-c2cccc(CO)c2)cccc1-3` [Example 2-302, 12-cyclohexyl-4-(3-hydroxymethylphenyl)-6,7-dihydro-5-oxa-7a-azadibenzo[a,e]azulene-9-carboxylic acid] was tested, and the IC50 was < 100 nM.
In the case of `CC(=O)N1CCN(C(=O)C(C)(C)NC(=O)c2ccc3c(C4CCCCC4)c4n(c3c2)CCOc2ccccc2-4)CC1` [Example 2-303, N-[2-(4-acetylpiperazin-1-yl)-1,1-dimethyl-2-oxoethyl]-12-cyclohexyl-6,7-dihydro-5-oxa-7a-azadibenzo[a,e]azulene-9-carboxamide], the IC50 is reported as < 100 nM.
